Legend:
[1] = target: GDP-bound NRAS wild-type protein (Homo sapiens, UniProt P01111); assay: Binding to NRAS by surface plasmon resonance (SPR), Single Cycle Kinetics; settings: KD ratio NRAS/KRAS, SPR, GDP-bound wild-type proteins
[2] = target: GDP-bound HRAS wild-type protein (Homo sapiens, UniProt P01112); assay: Binding to HRAS by surface plasmon resonance (SPR), Single Cycle Kinetics; settings: KD ratio HRAS/KRAS, SPR, GDP-bound wild-type proteins
GDP-bound HRAS wild-type protein, sequence (P01112 whole entry): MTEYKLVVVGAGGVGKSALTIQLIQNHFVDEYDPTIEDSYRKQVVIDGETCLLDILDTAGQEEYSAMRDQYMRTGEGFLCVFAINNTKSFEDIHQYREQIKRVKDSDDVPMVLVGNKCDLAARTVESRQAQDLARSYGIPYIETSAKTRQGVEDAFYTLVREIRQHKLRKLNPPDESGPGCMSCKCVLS

GDP-bound NRAS wild-type protein, sequence (P01111 whole entry): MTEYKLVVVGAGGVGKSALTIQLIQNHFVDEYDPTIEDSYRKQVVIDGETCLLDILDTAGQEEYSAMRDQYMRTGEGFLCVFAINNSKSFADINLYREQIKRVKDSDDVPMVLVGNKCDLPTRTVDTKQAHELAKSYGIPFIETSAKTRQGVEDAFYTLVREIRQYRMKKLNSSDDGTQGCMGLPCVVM

SMILES | NRAS/KRAS (ratio of KD value with respect to GDP-bound NRAS wild-type protein to KD value with respect to KRAS) [1] | HRAS/KRAS (ratio of KD value with respect to GDP-bound HRAS wild-type protein to KD value with respect to KRAS) [2]
CC[C@H](C)[C@@H]1NC(=O)[C@@H]2CCC/C=C/c3ccc(cc3)C[C@@H](C(=O)N(C)CC(=O)N[C@@H](CCc3ccc(Cl)c(Cl)c3)C(=O)N3C[C@H](OC4CCC4)C[C@H]3C(=O)NC3(CC(C)(C)C3)C(=O)N(C)[C@@H](C3CCCC3)C(=O)N(C)[C@H](C(=O)N3CCCC3)CC(=O)N2C)N2CC/C=C\C[C@@H](C2=O)N(C)C(=O)CN(C)C1=O [PP3053] | A (a compound having 10 or more and less than 20 is denoted as A) | A (a compound having 10 or more and less than 20 is denoted as A)
CC[C@H](C)[C@@H]1NC(=O)[C@@H]2CCC/C=C/c3ccc(cc3)C[C@@H](C(=O)N(C)CC(=O)N[C@@H](CCc3ccc(Cl)c(Cl)c3)C(=O)N3C[C@H](OC4CCCC4)C[C@H]3C(=O)NC3(CC(C)(C)C3)C(=O)N(C)[C@@H](C3CCCC3)C(=O)N(C)[C@H](C(=O)N3CCCC3)CC(=O)N2C)N2CC/C=C\C[C@@H](C2=O)N(C)C(=O)CN(C)C1=O [PP3054] | A (a compound having 10 or more and less than 20 is denoted as A) | A (a compound having 10 or more and less than 20 is denoted as A)
CCO[C@@H]1C[C@H]2C(=O)NC3(CC(C)(C)C3)C(=O)N(C)[C@@H](C3CCCC3)C(=O)N(C)[C@H](C(=O)N(C)CC)CC(=O)N(C)[C@H]3C/C=C/c4ccc(cc4)C[C@@H](C(=O)N(C)CC(=O)N[C@@H](CCc4ccc(Cl)c(Cl)c4)C(=O)N2C1)N1CC/C=C\C[C@@H](C1=O)N(C)C(=O)CN(C)C(=O)[C@H]([C@@H](C)CC)NC3=O [PP3056] | A (a compound having 10 or more and less than 20 is denoted as A) | A (a compound having 10 or more and less than 20 is denoted as A)
CCO[C@@H]1C[C@H]2C(=O)NC3(CC(C)(C)C3)C(=O)N(C)[C@@H](C3CCCC3)C(=O)N(C)[C@H](C(=O)N(C)C)CC(=O)N(C)[C@H]3CCCCC/C=C/c4ccc(cc4)C[C@@H](C(=O)N(C)CC(=O)N[C@@H](CCc4ccc(Cl)c(Cl)c4)C(=O)N2C1)N1CC/C=C\C[C@@H](C1=O)N(C)C(=O)CN(C)C(=O)[C@H]([C@@H](C)CC)NC3=O [PP3057] | A (a compound having 10 or more and less than 20 is denoted as A) | B (a compound having 3 or more and less than 10 is denoted as B)
CC[C@H](C)[C@@H]1NC(=O)[C@@H]2CCC/C=C/c3ccc(cc3)C[C@@H](C(=O)N(C)CC(=O)N[C@@H](CCc3ccc(Cl)c(Cl)c3)C(=O)N3C[C@H](OC4CCC4)C[C@H]3C(=O)NC3(CC(C)(C)C3)C(=O)N(C)[C@@H](C3CCCC3)C(=O)N(C)[C@H](C(=O)N(C)CC)CC(=O)N2C)N2CC/C=C\C[C@@H](C2=O)N(C)C(=O)CN(C)C1=O [PP3058] | A (a compound having 10 or more and less than 20 is denoted as A) | A (a compound having 10 or more and less than 20 is denoted as A)
CCO[C@@H]1C[C@H]2C(=O)N(C)C3(CC(C)(C)C3)C(=O)N(C)[C@@H](C3CCCC3)C(=O)N(C)[C@H](C(=O)N(C)C)CC(=O)N(C)[C@H]3CCC/C=C/c4ccc(cc4)C[C@@H](C(=O)N(C)CC(=O)N[C@@H](CCc4ccc(Cl)c(Cl)c4)C(=O)N2C1)N1CC/C=C\C[C@@H](C1=O)N(C)C(=O)CN(C)C(=O)[C@H]([C@@H](C)CC)NC3=O [PP3059] | A (a compound having 10 or more and less than 20 is denoted as A) | A (a compound having 10 or more and less than 20 is denoted as A)
CCO[C@@H]1C[C@H]2C(=O)N(C)C3(CC(C)(C)C3)C(=O)N(C)[C@@H](C3CCCC3)C(=O)N(C)[C@H](C(=O)N(C)C)CC(=O)N(C)[C@H]3CCC/C=C/c4ccc(cc4)C[C@@H](C(=O)N(C)CC(=O)N[C@@H](CCc4cc(F)c(C(F)(F)F)c(F)c4)C(=O)N2C1)N1CC/C=C\C[C@@H](C1=O)N(C)C(=O)CN(C)C(=O)[C@H]([C@@H](C)CC)NC3=O [PP3060] | B (a compound having 3 or more and less than 10 is denoted as B) | B (a compound having 3 or more and less than 10 is denoted as B)
CCO[C@@H]1C[C@H]2C(=O)N(C)C3(CC(C)(C)C3)C(=O)N(C)[C@@H](C3CCCC3)C(=O)N(C)[C@H](C(=O)N(C)C)CC(=O)N(C)[C@H]3CCC/C=C/c4ccc(cc4)C[C@@H](C(=O)N(C)CC(=O)N[C@@H](CCc4ccc(Cl)c(Cl)c4)C(=O)N2C1)N1CC/C=C\C[C@@H](C1=O)N(C)C(=O)CN(C1CC1)C(=O)[C@H]([C@@H](C)CC)NC3=O [PP3061] | A (a compound having 10 or more and less than 20 is denoted as A) | A (a compound having 10 or more and less than 20 is denoted as A)
CCO[C@@H]1C[C@H]2C(=O)N(C)C3(CC(C)(C)C3)C(=O)N(C)[C@@H](C3CCCC3)C(=O)N(C)[C@H](C(=O)N(C)C)CC(=O)N(C)[C@H]3CCCC/C=C/c4ccc(cc4)C[C@@H](C(=O)N(C)CC(=O)N[C@@H](CCc4ccc(Cl)c(Cl)c4)C(=O)N2C1)N1CC/C=C\C[C@@H](C1=O)N(C)C(=O)CN(C)C(=O)[C@H]([C@@H](C)CC)NC3=O [PP3062] | A (a compound having 10 or more and less than 20 is denoted as A) | A (a compound having 10 or more and less than 20 is denoted as A)
CCCO[C@@H]1C[C@H]2C(=O)NC3(CC(C)(C)C3)C(=O)N(C)[C@@H](C(CC)CC)C(=O)N(C)[C@H](C(=O)N(C)C)CC(=O)N(C)[C@H]3CCCc4ccc(cc4)C[C@@H](C(=O)N(C)CC(=O)N[C@@H](CCc4ccc(C(F)(F)F)c(OC)c4)C(=O)N2C1)N1CC/C=C\C[C@@H](C1=O)N(C)C(=O)CN(C)C(=O)[C@H]([C@@H](C)CC)NC3=O [PP3063] | B (a compound having 3 or more and less than 10 is denoted as B) | B (a compound having 3 or more and less than 10 is denoted as B)
CCCO[C@@H]1C[C@H]2C(=O)NC3(CC(C)(C)C3)C(=O)N(C)[C@@H](C3CCCC3)C(=O)N(C)[C@H](C(=O)N3CCCCC3)CC(=O)N(C)[C@H]3CCCc4ccc(cc4)C[C@@H](C(=O)N(C)CC(=O)N[C@@H](CCc4ccc(C(F)(F)F)c(OC)c4)C(=O)N2C1)N1CC/C=C\C[C@@H](C1=O)N(C)C(=O)CN(C)C(=O)[C@H]([C@@H](C)CC)NC3=O [PP3064] | B (a compound having 3 or more and less than 10 is denoted as B) | B (a compound having 3 or more and less than 10 is denoted as B)
CCCO[C@@H]1C[C@H]2C(=O)NC3(CC(C)(C)C3)C(=O)N(C)[C@@H](C3CCCC3)C(=O)N(C)[C@H](C(=O)N3CCCC3)CC(=O)N(C)[C@H]3CCCc4ccc(cc4)C[C@@H](C(=O)N(C)CC(=O)N[C@@H](CCc4ccc(C(F)(F)F)c(OC)c4)C(=O)N2C1)N1CC/C=C\C[C@@H](C1=O)N(C)C(=O)CN(C)C(=O)[C@H]([C@@H](C)CC)NC3=O [PP3065] | A (a compound having 10 or more and less than 20 is denoted as A) | B (a compound having 3 or more and less than 10 is denoted as B)
CCO[C@@H]1C[C@H]2C(=O)NC3(CC(C)(C)C3)C(=O)N(C)[C@@H](C3CCCC3)C(=O)N(C)[C@H](C(=O)N(C)C)CC(=O)N(C)[C@H]3CCCCCCc4ccc(cc4)C[C@@H](C(=O)N(C)CC(=O)N[C@@H](CCc4ccc(C(F)(F)F)c(OC)c4)C(=O)N2C1)N1CC/C=C\C[C@@H](C1=O)N(C)C(=O)CN(C)C(=O)[C@H]([C@@H](C)CC)NC3=O [PP3066] | A (a compound having 10 or more and less than 20 is denoted as A) | B (a compound having 3 or more and less than 10 is denoted as B)
CC[C@H](C)[C@@H]1NC(=O)[C@@H]2CCCCCCc3ccc(cc3)C[C@@H](C(=O)N(C)CC(=O)N[C@@H](CCc3ccc(C(F)(F)F)c(OC)c3)C(=O)N3C[C@H](OC(C)C)C[C@H]3C(=O)NC3(CC(C)(C)C3)C(=O)N(C)[C@@H](C3CCCC3)C(=O)N(C)[C@H](C(=O)N(C)C)CC(=O)N2C)N2CC/C=C\C[C@@H](C2=O)N(C)C(=O)CN(C)C1=O [PP3067] | A (a compound having 10 or more and less than 20 is denoted as A) | B (a compound having 3 or more and less than 10 is denoted as B)
CC[C@H](C)[C@@H]1NC(=O)[C@@H]2CCCCCCc3ccc(cc3)C[C@@H](C(=O)N(C)CC(=O)N[C@@H](CCc3ccc(C(F)(F)F)c(OC)c3)C(=O)N3C[C@H](OC4CCC4)C[C@H]3C(=O)NC3(CC(C)(C)C3)C(=O)N(C)[C@@H](C3CCCC3)C(=O)N(C)[C@H](C(=O)N(C)C)CC(=O)N2C)N2CC/C=C\C[C@@H](C2=O)N(C)C(=O)CN(C)C1=O [PP3068] | A (a compound having 10 or more and less than 20 is denoted as A) | B (a compound having 3 or more and less than 10 is denoted as B)

From US20250230193A1, “CYCLIC COMPOUND HAVING SELECTIVE KRAS INHIBITORY EFFECT ON HRAS AND NRAS” (CHUGAI SEIYAKU KABUSHIKI KAISHA, priority 2022, published 2025)
